Laboratory results reported in patent publication EP0581652A1, “Pradimicins T1 and T2 and 11-0-dexylosylpradimicin T1, new members of the pradimicin family of antibiotics” (priority 1992, dated 1994).

Tests used:
[1] = tested on: Trichophyton mentagrophytes 4329; assay: In vitro antifungal activity, agar dilution method (MIC); type: cell-based; conditions: yeast morphology agar + 1/15M phosphate buffer (pH 7.0), 10^7 cells/ml, 28°C, 60 hrs
[2] = tested on: Aspergillus fumigatus IAM 2034; assay: as above; type: cell-based; conditions: yeast morphology agar + 1/15M phosphate buffer (pH 7.0), 10^6 cells/ml, 28°C, 40 hrs
[3] = tested on: Candida albicans ATCC 32354 (B311); assay: as above; type: cell-based; conditions: yeast morphology agar + 1/15M phosphate buffer (pH 7.0), 10^6 cells/ml, 28°C, 40 hrs
Candida albicans A9540 [4] = assay: In vivo efficacy against systemic infection in mice; conditions: male ICR mice; C. albicans A9540 systemic infection; single intravenous dose immediately after challenge; survival rate 20 days after infection
Experimental: (§1) Pradimicins T1 and T2 were evaluated for in vivo efficacy against a Candida albicans A9540 systemic infection in male ICR mice (20-24 g body weight) as described by Oki etal. in water-soluble pradimicin derivatives, synthesis and antifungal evaluation of N,N,-dimethyl pradimicins, J. Antibiotics 43: 1230-1235, 1990. Five mice at each dose level were challenged intravenously with ten times the 50% lethal dose of the pathogen suspended in saline. Antibiotics were intravenously administered once immediately after the fungal challenge. Infection control animals (n=10) died from 7 to 12 days. The 50% protective dose (PD50) was calculated from the survival rate 20 days after the fungal infection. The acute toxicity of pradimicins T1 and T2 was determined in mice after a single intravenous dose.

Candida albicans A9540 [5] = assay: In vitro antifungal activity, agar dilution method (MIC); type: cell-based; conditions: yeast morphology agar + 1/15M phosphate buffer (pH 7.0), 10^6 cells/ml, 28°C, 40 hrs
[6] = tested on: Cryptococcus neoformans IAM 4514; assay: as above; type: cell-based; conditions: yeast morphology agar + 1/15M phosphate buffer (pH 7.0), 10^6 cells/ml, 28°C, 40 hrs
[7] = tested on: Cryptococcus neoformans D49; assay: as above; type: cell-based; conditions: yeast morphology agar + 1/15M phosphate buffer (pH 7.0), 10^6 cells/ml, 28°C, 40 hrs
[8] = tested on: Saccharomyces cerevisiae ATCC 9763; assay: as above; type: cell-based; conditions: yeast morphology agar + 1/15M phosphate buffer (pH 7.0), 10^6 cells/ml, 28°C, 40 hrs
[9] = tested on: Candida albicans 83-2-14 (Juntendo); assay: as above; type: cell-based; conditions: yeast morphology agar + 1/15M phosphate buffer (pH 7.0), 10^6 cells/ml, 28°C, 40 hrs
[10] = Acute toxicity in mice after a single intravenous dose; type: in vivo
Experimental: as §1

Row | Substance | MIC [1] [μ g/ml] | MIC [2] [μ g/ml] | MIC [3] [µg/mL] | PD50 (Candida albicans A9540 [4]) [mg/kg] | MIC (Candida albicans A9540 [5]) [µg/mL] | MIC [6] [µg/mL] | MIC [7] [µg/mL] | MIC [8] [µg/mL] | MIC [9] [µg/mL] | LD50 [10] [mg/kg]
1 | 11-O-dexylosylpradimicin T1 [11-O-Dexylosyl-pradimicin T1] | 12.5 | 25 | – | – | – | – | – | – | – | –
2 | Amphotericin B | 0.8 | 0.8 | 0.4 | 0.2 | 0.4 | 0.4 | 0.4 | 0.4 | 0.4 | 4.5
3 | Pradimicin T1 | 6.3 | 6.3 | – | – | – | – | – | – | – | –
4 | Pradimicin T2 | 50 | >100 | – | – | – | – | – | – | – | –
